{"source": "paper PMC6591251", "about": "“Discovery of potent necroptosis inhibitors targeting RIPK1 kinase activity for the treatment of inflammatory disorder and cancer metastasis” (Cell Death & Disease, 2019)", "key": {"[1]": {"system": "rat bone marrow-derived macrophages", "assay": "TNFR- and TLR-mediated necroptosis", "type": "cell-based", "conditions": "rat BMDM; PK6 10 μM, PK68 100 nM; 24–30 h", "source_text": "(§1) In addition to TNF-induced necroptosis, it is known that TLR3 or TLR4 activation can also trigger necroptosis. We further evaluated the effects of PK6 and PK68 on TLR3- and TLR4-mediated necroptosis induced by poly(I:C)/z-VAD and LPS/z-VAD, respectively. […] To investigate the molecular mechanism of PK series-mediated necroptosis inhibition, we examined the effects of these compounds on the major steps of necroptotic signaling, including activation of RIPK1, RIPK3, and MLKL. […] It has been shown previously that RIPK3 activation leads to the formation of RIPK3 puncta during necroptosis.\n(§2) Fig. 3 PK6 and PK68 block cellular activation of RIPK1, RIPK3, and MLKL upon necroptotic stimuli. a, b Bone marrow-derived macrophages from C57BL/6 mice or rat were pretreated with DMSO, PK6(10 μM), or PK68 (100 nM) for 1 h and subsequently treated with indicated stimuli for 24–30 h. Cell viability was determined by measuring ATP levels. L, LPS (20 ng/ml); P, poly(I:C) (50 μg/ml); S (100 nM); Z (10 μM). […] The distribution of RIPK3 was detected by immunofluorescence. *P < 0.05. **P < 0.01. ***P < 0.001 […]\n(§3) The cell viability was analyzed by using the CellTiter-Glo Luminescent Cell Viability Assay kit following the manufacturer’s instructions (Promega). Luminescence was measured with SpectraMax i3x (Molecular Devices)."}, "[2]": {"system": "HT-29 cells stably expressing Flag-tagged RIPK3", "assay": "RIPK3 puncta formation, immunofluorescence", "type": "cell-based, human", "conditions": "T 100 ng/ml, S, Z 12 h", "source_text": "as §1\nas §2, with “μM). Data are represented as the mean ± standard deviation of triplicates. c HT-29 cells were treated with the indicated compound for 1 h prior to the treatment of T (40 ng/ml), S (100 nM), and Z (20 μM) for additional 8 h.” for “μM).”"}, "human RIPK1": {"biological_target": "T1, human RIPK1 (Homo sapiens, UniProt Q13546)", "T1 construct": "purchased SignalChem", "T1 sequence (Q13546 whole entry)": "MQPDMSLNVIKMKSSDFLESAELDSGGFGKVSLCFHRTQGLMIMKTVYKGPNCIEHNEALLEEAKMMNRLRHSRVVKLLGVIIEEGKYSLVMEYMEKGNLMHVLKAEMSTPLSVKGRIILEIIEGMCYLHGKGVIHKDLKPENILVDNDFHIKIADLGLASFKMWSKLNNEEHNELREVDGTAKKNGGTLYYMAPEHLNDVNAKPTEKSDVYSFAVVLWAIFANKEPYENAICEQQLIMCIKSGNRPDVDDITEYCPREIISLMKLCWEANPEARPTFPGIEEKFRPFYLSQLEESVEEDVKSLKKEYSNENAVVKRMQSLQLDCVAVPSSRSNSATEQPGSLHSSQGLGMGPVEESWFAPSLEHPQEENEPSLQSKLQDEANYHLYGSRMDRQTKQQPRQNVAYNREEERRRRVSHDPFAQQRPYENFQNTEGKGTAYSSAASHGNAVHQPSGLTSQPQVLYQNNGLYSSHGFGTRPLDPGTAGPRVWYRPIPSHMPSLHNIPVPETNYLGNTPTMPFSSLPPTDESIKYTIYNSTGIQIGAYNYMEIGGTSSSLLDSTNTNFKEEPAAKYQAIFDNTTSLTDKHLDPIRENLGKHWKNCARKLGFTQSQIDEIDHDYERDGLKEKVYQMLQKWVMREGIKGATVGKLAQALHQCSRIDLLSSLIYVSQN", "assay": "In vitro kinase activity assay (ADP-Glo)", "type": "biochemical", "conditions": "recombinant RIPK1; ATP 50 μM", "experimental": "Having shown that PK6 and PK68 can inhibit activation of both RIPK1 and RIPK3 during TNF-mediated necroptosis, we sought to determine if PK6 and PK68 can directly target RIPK1 or and RIPK3 by performing in vitro kinase assays. Both PK6 and PK68 were able to block the kinase activities of both human RIPK1 and mouse RIPK1 in vitro (Fig. 4a and Supplementary Fig. 19).\n(§4) Recombinant proteins were incubated with PK6 and PK68 as indicated. […] NIH3T3-RIPK3 cells were pretreated with indicated compounds for 1 h and subsequently treated with T (40 ng/ml)/S (100 nM)/Z (20 μM) or AP20187 (100 nM) for 24 h. Cell viability was determined by measuring ATP levels. e PK6 and PK68 have no effect on MLKL dimerization-induced cell death in HeLa-MLKL (1–190) cells that stably express MLKL (1–190aa) fused to DmrB. HeLa-MLKL (1–190) cells were pretreated with indicated compounds for 1 h and subsequently treated with AP20187 (100 nM) for 24 h. Cell viability was determined by measuring ATP levels.\nThe recombinant RIPK1 or RIPK3 protein was incubated with DMSO or the indicated compound for 15 min in the assay buffer (25 mM HEPES pH 7.2, 20 mM MgCl2, 12.5 mM MnCl2, 12.5 mM β-glycerol phosphate, 5 mM EGTA, 2 mM EDTA, and 2 mM DTT). […] The luminescence was measured to calculate the kinase activity after the addition of the ADP-Glo Kinase Assay kit following the manufacturer’s instructions (Promega)."}, "[3]": {"system": "NF-κB activation in HT-29 cells", "assay": "TNF-induced NF-κB activation, western blot of IκB-α and phospho-IκB-α", "type": "cell-based, human", "conditions": "TNF-α 40 ng/ml 15 min", "experimental": "(§5) Further, we evaluated the selectivity of PK68 against a panel of 369 kinases provided by Reaction Biology (at 1000 nM). […] In addition, we followed on some of the active “hits” from the kinome scan. PK68 was tested against TNIK and TRKA by a reputable CRO company. […] RIPK1 is known to mediate NF-κB activation independently of its kinase activity. […] It has been shown that homodimerization of RIPK3 or MLKL induced by the dimerizer leads to necroptosis bypassing the upstream signals[10],[37]. […] This dimerized RIPK3-induced necroptosis was blocked by RIPK3 inhibitor GSK873 but was not blocked by the RIPK1 inhibitor necrostatin-1. […] (Fig. 4e).\nHT-29 cells were pretreated with indicated compounds for 1h prior to stimulation with TNF-α (40ng/ml) for 15 minutes. The levels of IκB-α and phosphor-IκB-α were analyzed by western blot analysis. The NF-κB inhibitor BMS-345541 was used as a positive control."}, "NIH3T3-RIPK3 cells": {"system": "NIH3T3-RIPK3 cells", "assay": "RIPK3 dimerization-induced necroptosis (AP20187)", "type": "cell-based, mouse", "conditions": "AP20187 100 nM, 24 h", "experimental": "as §4, §5, §3"}}, "note": "Several values for one entry are separate records, joined by “and”; a condition that tells them apart may be missing. Equal entries are not always repeated. Entries after “also recorded” stand apart in the source; their conditions may differ.", "data": [{"smiles": "CC(=O)Nc1nc2ccc(-c3cnc(Cl)c(NC(=O)Cc4ccccc4)c3)cc2s1", "note": "[PK6, N-(5-(2-acetamidobenzo[d]thiazol-6-yl)-2-chloropyridin-3-yl)-2-phenylacetamide]", "values": [{"measurement": "TNFR- and TLR-mediated necroptosis", "setting": "[1]", "result": "showed inhibitory effects"}, {"measurement": "generation of RIPK3 puncta", "setting": "[2]", "result": "prevented generation of RIPK3 puncta"}, {"measurement": "IC50", "setting": "human RIPK1", "result": "0.2 ± 0.13", "unit": "µM"}, {"measurement": "TNF-induced NF-κB activation", "setting": "[3]", "result": "no obvious effects; also recorded: no impact; also recorded: no effect"}, {"measurement": "RIPK3 dimerization-induced necroptosis", "setting": "NIH3T3-RIPK3 cells", "result": "neither PK6 nor PK68 blocked"}]}, {"smiles": "CC(=O)Nc1nc2ccc(-c3cnc(C)c(NC(=O)OC4CCCCC4)c3)cc2s1", "note": "[PK68, cyclohexyl (5-(2-acetamidobenzo[d]thiazol-6-yl)-2-methylpyridin-3-yl)carbamate]", "values": [{"measurement": "TNFR- and TLR-mediated necroptosis", "setting": "[1]", "result": "showed inhibitory effects"}, {"measurement": "generation of RIPK3 puncta", "setting": "[2]", "result": "prevented generation of RIPK3 puncta"}, {"measurement": "IC50", "setting": "human RIPK1", "result": "~0.09 µM and 0.09 µM"}, {"measurement": "TNF-induced NF-κB activation", "setting": "[3]", "result": "no obvious effects; also recorded: no impact; also recorded: no effect"}, {"measurement": "RIPK3 dimerization-induced necroptosis", "setting": "NIH3T3-RIPK3 cells", "result": "neither PK6 nor PK68 blocked"}]}]}
